The record followed here is patent US20100190849A1, “Novel Clerodanes and Methods for Repelling Arthropods” (priority 2006, published 2010).

Marks after values point to notes of the source that are not given here.

One assay concerns Anopheles stephensi. Briefly: K & D module mosquito anti-biting (repellent) bioassay. Type of assay: in vivo. Conditions: 25 nmol compound/cm^2 cloth; for Proportion Not Biting: Exp. 7, 56 replicates; for repellent activity (in words): Experiment 7. From the text: Insects: Ae. aegypti(L.) (red eye Liverpool strain) and An. stephensi Liston used in the study were from colonies maintained at the Walter Reed Army Institute of Research, Silver Spring, Md. The insects were reared by feeding larvae ground tropical fish flakes (Tetramin Tropical Fish Flakes, Tetra Sales, Blacksburg, Va., www.tetra-fish.com)(Gerberg, E. j., et al., Manual for mosquito rearing and experimental techniques. Amer. Mosq. Control Assoc. Bull. No. 5 (revised), 1994, AMCA. inc., Lake Charles, La.). Adults were maintained in a photoperiod of 12:12 (L:D) h at 27° C. and 80% RH with cotton pads moistened with 10% aqueous sucrose solution. Mated females were 5-15 d old when they were used in bioassays. Ae. aegypti females had access only to water 24 h and neither food nor water for another 24 h before testing. An. stephensi females were provided with water alone 24 h before testing.
Mosquito Bioassay Methods: Experiment were conducted by using, a six-celled in vitro Klun & Debboun (K & D) module bioassay system developed by klun et al. (Klum J. A., et al., Journal of the American Mosquito Control Association. 21: 64-70 (2005)) for quantitative, evaluation of mosquito-repellent (anti-biting) properties of candidate repellent compounds for human use.
Plant extracts, fractions, or isolated pure plant derived compounds in 95% ethanol solution were each randomly applied to six-4×5 cm areas of organdy cloth and positioned over the membrane-covered blood. A replicate consisted of six treatments: four test chemicals or extract fractions, 95% ethanol treated cloth as control and unfractionated plant extract or a standard repellent compound, (1S, 2′S)-2-methylpiperidinyl-3-cyclohexen-1-carboxamide (SS220) at 25 nmol/cm^2 cloth. The 25 nmol SS220/cm^2 cloth dose was used as a standard, because it was known from human volunteer and in vitro assays to consistently suppress mosquito biting by 80% or more compared to controls in replicated assays (Klun, J. A., et al., Journal of the American Mosquito Control Association, 21: 64-70 (2005)). […] Routinely, a six-celled K & D module containing five mosquitoes/cell was positioned over cloth treatments covering the six blood-membrane wells, and trap doors of the K&D modules were opened to expose the treatments to the sets of mosquitoes. After a 3 minute exposure, the number of mosquitoes biting through cloth treatments in each cell was recorded and mosquitoes were prodded back into the cells. In Experiment 8, we retained all mosquitoes in their respective K&D module cells, each fitted with a water-moist piece of cotton, and observed the mosquitoes for total mosquito toxic knockdown at 6 min, 1 hr, and 24 hr post-treatment exposure. Experiments were replicated 12, 18, 32, or 56 times. Thus, 60, 90, 160. or 280 mosquitoes were tested against each treatment depending on the experiment, and the proportion of mosquitoes not biting for each treatment was calculated. For each experiment, conducted in different time periods, logistic regression was used to make two sets of one degree-of-freedom contrasts (t-tests): treatments vs. control and treatments vs. SS220 for anti-biting activity within each experiment. The level of significance was set at P=0.05. In all, we conducted 8 biological experiments, and all experiments used Ae. aegypti as the test mosquito with exception of Experiment 7 which used An. stephensi.
(§1) Experiments 6 and 7: These experiments compared the anti-biting activities of SS-220, and plant-isolated callicarpenal, humulene epoxide II, intermedeol and spathulenol at 25 nmol compound/cm^2 cloth versus control against Ae. aegypti and An. stephensi, respectively. Experiment 6 was replicated 32 times and 7 had 56 replicates

The next assay concerns S. invicta. In words: Two-choice digging bioassay, head-to-head against octanoic acid. In kind it is in vivo, Solenopsis invicta. Conditions: 25.00 ppm; both S. invicta colonies; FIGS. 3 and 4. The procedure:
(§2) The repellency of the two terpenoids, callicarpenal and intermedeol, against workers of red imported fire ants, Solenopsis invicta Buren, black imported fire ants, Solenopsis rickeri Forel, and a hybrid of these two species was evaluated using multiple-choice digging bioassays (Tables 9 & 10). […] Callicarpenal and intermedeol were compared with octanoic acid, a known fire ant repellant, at the 25.00 ppm level using two-choice digging bioassays (FIGS. 3 and 4).
(§3) Head-to-head comparison on repellency of callicarpenal and intermedeol against octanoic acid: The bioassay apparatus was similar as described above, except a smaller Petri dish (8.7×2.3 cm) was used and only two choices were presented: one was sand treated with callicarpenal or intermedeol and the other with octanoic acid. Two choices were opposite each other across the center of the Petri dish and each was 3.0 cm away from the center. All compounds were tested at a 25.00 ppm level. Sand preparation was similar as described above. Ants from the same colonies as above were used in this experiment. There were five replications for each pair of comparisons. A paired t-test (critical P-value=0.05) was used to compare the mean amount of sand removed between two tubes.

The next assay concerns Aedes aegypti. In words: K & D module mosquito anti-biting (repellent) bioassay. In kind it is in vivo. As for the experimental part: Insects: Ae. aegypti(L.) (red eye Liverpool strain) and An. stephensi Liston used in the study were from colonies maintained at the Walter Reed Army Institute of Research, Silver Spring, Md. […] Adults were maintained in a photoperiod of 12:12 (L:D) h at 27° C. and 80% RH with cotton pads moistened with 10% aqueous sucrose solution. Mated females were 5-15 d old when they were used in bioassays. Ae. aegypti females had access only to water 24 h and neither food nor water for another 24 h before testing. An. stephensi females were provided with water alone 24 h before testing.
Routinely, a six-celled K & D module containing five mosquitoes/cell was positioned over cloth treatments covering the six blood-membrane wells, and trap doors of the K&D modules were opened to expose the treatments to the sets of mosquitoes. After a 3 minute exposure, the number of mosquitoes biting through cloth treatments in each cell was recorded and mosquitoes were prodded back into the cells. […] Experiments were replicated 12, 18, 32, or 56 times. Thus, 60, 90, 160. or 280 mosquitoes were tested against each treatment depending on the experiment, and the proportion of mosquitoes not biting for each treatment was calculated. For each experiment, conducted in different time periods, logistic regression was used to make two sets of one degree-of-freedom contrasts (t-tests): treatments vs. control and treatments vs. SS220 for anti-biting activity within each experiment. The level of significance was set at P=0.05. In all, we conducted 8 biological experiments, and all experiments used Ae. aegypti as the test mosquito with exception of Experiment 7 which used An. stephensi.
Each experiment was replicated 18 times.
Experiments 3, 4, and 5: In each of these experiments, chromatographic fractions of essential oil at their respective percentage compositions of 100 μg essential oil/cm^2 cloth, 100 μg unfractionated essential oil/cm^2 cloth, 25 nmol SS-220/cm^2 cloth and control were compared for mosquito anti-biting activity. Each experiment was replicated 18 times.
as §1
The percentage composition of the mixture was a normalized percentage of active components in C. japonica essential oil based upon GC-MS analysis total ion Area % analysis based on largest peaks. Other treatments in the experiment were SS220, callicarpenal, intermedeol, and spathulenol each at 25 nmol/cm^2 cloth versus control.

The subject of another assay is S. richteri. Briefly: Two-choice digging bioassay, head-to-head against octanoic acid. Type of assay: in vivo, Solenopsis richteri. Conditions: 25.00 ppm; both S. richteri colonies; FIGS. 3 and 4. The procedure:
as §2, §3

Where [1] appears, read: Exp. 6, 25 nmol compound/cm^2 cloth, 32 replicates.
Where [2] appears, read: Exp. 8, 25 nmol/cm^2 cloth, 12 replicates.
The mark [3] stands for this setting: Experiment 6, 25 nmol compound/cm^2 cloth.
Where [4] appears, read: Experiment 8, 25 nmol/cm^2 cloth.

As for `C=C(C)C1CCC2(C)CCCC(C)(O)C2C1` [intermedeol, (4S,5S,7R,10S)-eudesm-11-en-4-ol], the “Proportion Not Biting” value in the assay with Anopheles stephensi was 0.72^c; in the assay with Aedes aegypti (setting [1]) it was 0.70^b; in the assay with Aedes aegypti (setting [2]) it was 0.62^c. Moreover, the “repellent activity (in words)” value with Anopheles stephensi is reported as “as effective as SS220”; with Aedes aegypti (setting [3]) it was “significant activity”; in the assay on Aedes aegypti (setting [4]), “high repellent activity that was comparable to SS220”. Also, the “repellency compared with octanoic acid (in words)” value in the assay on S. invicta and in the assay with S. richteri was “significantly greater repellency than octanoic acid” each time.

Consider `CC1=CCC[C@@H]2[C@@](C)(CC=O)[C@H](C)CC[C@@]12C` [callicarpenal, 13,14,15,16-tetranorclerod-3-en-12-al], for which the “Proportion Not Biting” value in the assay on Anopheles stephensi is listed as 0.75^c; with Aedes aegypti (setting [1]), 0.70^b; in the assay on Aedes aegypti (setting [2]) it was 0.73^a; in the assay with Aedes aegypti (Table 7, Example 2, synthetic compounds, dose not given) it was 0.70^b; in the assay on Aedes aegypti (Table 8, Example 3, synthetic compounds, dose not given), 0.73^b. Moreover, the figures for the “repellent activity (in words)” value with Anopheles stephensi, in the assay on Aedes aegypti (setting [3]) and with Aedes aegypti (setting [4]) were “as effective as SS220”, “significant activity” and “high repellent activity that was comparable to SS220”, respectively. Besides, the “repellency compared with octanoic acid (in words)” value in the assay with S. invicta was “no significant difference”; with S. richteri, “significantly greater repellency than octanoic acid”.
